What was measured:
[1] = tested on: primary human hepatocytes (PHHs); experiment: PHH culture: morphology and survival; type: cell-based
Procedure: (§1) The present study was approved by the Research Ethics Committee of China-Japan Friendship Hospital (Ethical approval No: 2009-50). PHHs were obtained from human donors. Human hepatocytes were isolated from discarded human livers. A modified two-step collagenase perfusion procedure was used to isolate primary human hepatocytes from these tissues (OOtani, et al., Nat Med., 15:701-706 (2009)). Briefly, the liver tissue was perfused with PB (perfusion buffer: 0.15 M NaCl; 5 mM KCl; 25 mM NaHCO3; 5 mM Glucose; 20 mM Hepes) to remove remaining blood cells, followed by PBE (perfusion buffer plus 1 mM EDTA) perfusion. The tissue was then perfused with PBC (perfusion buffer plus 1 mg/mL collagenase type IV, 5 mM CaCl2, Gibco). All the buffers were prewarmed to 37° C. prior to the isolation process. The hepatocytes suspension was collected and washed with Williams' Medium E (Gibco), then filtered through a 40 μm Nylon cell strainer (Falcon). The isolated hepatocytes were then seeded on collagen type I-coated (Rat tail collagen type I, Gibco) plates at a density of 2.5×10^5/cm2.
(§2) Serum-free medium used for hepatocyte culture (Null): Williams' medium E containing B27 (50×, Gibco), Glutmax (Gibco) and Pen Strep (Gibco). DMSO vehicle control: Null supplemented with nearly 0.035% DMSO. […] 24 h-Cultured hepatocytes were cultured in commercial medium HCM (Lonza).

[2] = tested on: primary human hepatocytes (PHHs)
Procedure: as §1, §2
Total RNA was isolated using the RNeasy Micro Kit (QIAGEN). RNA was converted to cDNA using First-Strand Synthesis SuperMix for qRT-PCR (Invitrogen). PCR was carried out using Power SYBR® Green PCR Master Mix (Applied Biosystems) and performed on an MX3000P Sequence Detection System (Stratagene). The data were analyzed using the delta-delta Ct method.

HBV = HBV infection of 5C-PHHs; type: cell-based; details: for HBV products (HBsAg, HBeAg, HBV RNA, HBV DNA, cccDNA) in infected 5C-PHHs: drug treatment of HBV infected 5C-PHHs
[3] = tested on: interferon-stimulated genes (ISGs); experiment: ISG expression in long-term cultured 5C-PHHs; type: cell-based, human
HCV Jc1G = experiment: HCV infection of 5C-PHHs; type: cell-based; details: Gluc reporter and intracellular HCV RNA
Procedure: The Huh7.5 cell line was kindly provided by Professor Charles Rice and was routinely maintained in Dulbecco modified medium supplemented with 10% fetal bovine serum (Biological industries), 25 mM HEPES (Gibco) and Non-Essential Amino Acid (Gibco). For generating the cell cultured HCV, the plasmid encoding HCV Jc1FLAG2 (p7-nsGluc2A) (Jc1G in the text) was first linearized by XbaI digestion, and used as template for in-vitro-transcription by using MEGAscript (Invitrogen). HCVcc was generated as described previously by electroporation of the in-vitro-transcribed Jc1G RNA into Huh7.5 cells. Virus containing supernatants were harvested each day after 3 days post electroporation' and up to 7 days post electroporation. Supernatants were combined and the virus was concentrated by centrifugation using Amicon® Ultra-15 (100K) Centrifugal Filter Devices (Millipore) at 5000 g for 30 min at 4° C. The buffer was exchanged into PBS by repeated centrifugation with Amicon® Ultra-15. […]
For quantification of intracellular HCV RNA, cells were lysed in Trizol reagent (Invitrogen). […] The relative RNA levels were calculated using the 2-ΔΔCt method. […]
For quantification of luciferase activity, supernatants from each well were taken and mixed with equal volume of 2×passive lysis buffer (Promega). Luciferase activity was measured with Renilla luciferase substrate (Promega) according to manufacturer's protocol.

[4] = tested on: primary human hepatocytes (PHHs); experiment: RNA-Seq global gene expression profiling of cultured PHHs; type: cell-based; details: hierarchical clustering
Source text: Total RNA was isolated using the RNeasy Plus Mini Kit (QIAGEN). RNA sequencing libraries were constructed using the Illumina mRNA-Seq Prep Kit (Illumina). Fragmented and randomly primed 150 bp paired-end libraries were sequenced using Illumina HiSeq 4000. Software and algorithms used for transcriptome analysis are including Cutadapt 1.16 (http://cutadapt.readthedocs.io/en/stable/guide.html), Salmon 0.8.2 (https://combinelab. github.io/salmon/), and R 3.5.0 (https://www.r-project.org). The expression profiles of HepG2, F-PHHs-3 and F-PHHs-4 were downloaded as raw data. The expression profiles of PHH 0d, hiPSC-Hep rep1, hiPSC-Hep rep2, hiPSC-Hep rep3 and hiPSC-Hep rep4 (Gordillo, et al., Development, 142:2094-2108 (2015)) were downloaded as raw sequencing reads from GEO database (GSM2817112, GSM2753376, GSM2753377, GSM2753378, GSM2753379). To compare gene expression profile between paired-end and single end libraries, we used the read1 from our generated sequencing paired-end reads. The read1 and the downloaded single-end read were trimmed to the same 40 bp length by using Cut adapt. The expression values for each sample were quantified by Salmon. Unsupervised hierarchical clustering of RNA-Seq data was generated by hclust package in R.

For Forskolin [FSK], the PHH survival ([1]; combined with SB43) was “sustained PHH survival” and the “EMT marker gene expression α-smooth muscle actin (ASMA)” value ([2]; combined with SB43, qRT-PCR at day 14) was “down-regulated”.
interferon-α [IFN-α] was tested, and the cccDNA (HBV; cryopreserved PHHs cultured in 5C) was “significant reduction”, the “HBV products (HBsAg, HBeAg, HBV RNA, HBV DNA, cccDNA) in infected 5C-PHHs” value (from here on “HBV products”) (HBV) was “reduction of HBV products” and the “interferon-stimulated genes (ISGs) expression” value [3] was “significantly upregulated”.
In the case of `Nc1ccn([C@@H]2CS[C@H](CO)O2)c(=O)n1` [LAM, lamivudine], the “HBV products” value (HBV) is reported as “reduction of HBV products”.
For Daclatasvir [DCV], the “HCV viral replication in 5C-PHHs” value (HCV Jc1G) was “effectively blocked”.
`CCCC(=O)Nc1ncnc2c1ncn2[C@@H]1O[C@@H]2COP(=O)([O-])O[C@H]2[C@H]1OC(=O)CCC.[Na+]` [db-cAMP, Dibutyryl-cAMP, sodium salt] was tested, and the “global gene expression of PHHs when FSK is substituted” value [4] was “replaced FSK”.
With `C[C@H](NC(=O)Cc1cc(F)cc(F)c1)C(=O)N[C@H](C(=O)OC(C)(C)C)c1ccccc1` [DAPT] the “expression of EMT marker genes (COL1A1; Thy1; VIM)” value ([2]; added to SB43 and FSK combination) was “further blocked” and the “expression of mesenchymal marker gene COL1A1” value ([2]; combined with SB43 and FSK, day 14, normalized to FSK+SB43) was “decreased”.
With `NC(=O)c1ccc(-c2nc(-c3ccc4c(c3)OCO4)c(-c3ccccn3)[nH]2)cc1` [SB43, 4-[4-(1,3-benzodioxol-5-yl)-5-(2-pyridinyl)-1H-imidazol-2-yl]benzamide] the “epithelial morphology with the expression of E-cadherin” value ([1]; SB43 treatment, after 2 weeks) was “maintained an epithelial morphology”, the “expression of EMT-associated transcription factors SNAI2, TWIST1” value ([2]; SB43 alone) was “failed to suppress” and the “maintaining the functional state of PHHs” value ([2]; blocking TGF-β signaling with SB43 alone) was “limited effect”.
With entecavir [ETV] the “HBV products” value (HBV) was “reduction of HBV products”.
